From US8268805B2, “Use of ceramides for depigmenting the skin” (L'Oreal, priority 2005, dated 2012)

Legend:
[1] = tested on: tyrosinase activity of the melanocytes of human skin; conditions: cited from earlier work
[2] = tested on: coculture of keratinocytes and melanocytes; experiment: Modulatory effect on melanogenesis: inhibition of melanin synthesis (thiouracil/leucine incorporation ratio); format: cell-based; conditions: ratio of thiouracil to leucine incorporation related to 100% of control, read-out: IC50 (concentration for which 50% of the melanin synthesis is inhibited)
Procedure: The modulatory effect on melanogenesis of the compounds tested was measured according to the method described in patent FR-A-2734825, and also in the article by R. Schmidt, P. Krien and M. Regnier, Anal. Biochem., 235(2), 113-18, 1996. This test is carried out on a coculture of keratinocytes and melanocytes.
For the compound tested, the inhibitory activity on melanin synthesis was determined by estimating the ratio of thiouracil incorporation to leucine incorporation, related to 100% of the control (the control corresponds to the test carried out without compound to be tested). The IC50 values (concentration for which 50% of the melanin synthesis is inhibited) were determined.
The test was also carried out with arbutin and lucinol (2-butylbenzene-1,3-diol), which are known depigmenting compounds.

Row | Structure (SMILES) | effect on the tyrosinase activity of the melanocytes of human skin [1] | IC50 [2] [nM]
1 | CCCCCCCCCCCCC/C=C/[C@@H](O)[C@H](CO)NC(C)=O [N-acetyl-D-erythrosphingosine] | has an effect | 
2 | CCCCCCCC/C=C\CCCCCCCC(=O)NC(CO)C(O)CCCCCCCCCCCCCCC (centres unmarked) [N-oleoyldihydrosphingosine] |  | 100
3 | CCCCCCCCCCCCCCCC(O)C(CO)NC(=O)C(O)CCCCCCCCCCCCCC (centres unmarked) [N-2-hydroxypalmitoyldihydrosphingosine] |  | 100
4 | OC[C@H]1O[C@@H](Oc2ccc(O)cc2)[C@H](O)[C@@H](O)[C@@H]1O [Arbutin] |  | 209000
5 | CCCCCCCCCCCCC/C=C/[C@@H](O)[C@@H](N)COP(=O)(O)O [sphingosine-1-phosphate] | no effect | 
